{"source": "ChEMBL document CHEMBL4507319", "about": "(2021)", "key": {"[1]": {"biological_target": "T1, Cytoplasmic tyrosine-protein kinase BMX (Homo sapiens) (UniProt P51813)", "T1 sequence (whole entry)": "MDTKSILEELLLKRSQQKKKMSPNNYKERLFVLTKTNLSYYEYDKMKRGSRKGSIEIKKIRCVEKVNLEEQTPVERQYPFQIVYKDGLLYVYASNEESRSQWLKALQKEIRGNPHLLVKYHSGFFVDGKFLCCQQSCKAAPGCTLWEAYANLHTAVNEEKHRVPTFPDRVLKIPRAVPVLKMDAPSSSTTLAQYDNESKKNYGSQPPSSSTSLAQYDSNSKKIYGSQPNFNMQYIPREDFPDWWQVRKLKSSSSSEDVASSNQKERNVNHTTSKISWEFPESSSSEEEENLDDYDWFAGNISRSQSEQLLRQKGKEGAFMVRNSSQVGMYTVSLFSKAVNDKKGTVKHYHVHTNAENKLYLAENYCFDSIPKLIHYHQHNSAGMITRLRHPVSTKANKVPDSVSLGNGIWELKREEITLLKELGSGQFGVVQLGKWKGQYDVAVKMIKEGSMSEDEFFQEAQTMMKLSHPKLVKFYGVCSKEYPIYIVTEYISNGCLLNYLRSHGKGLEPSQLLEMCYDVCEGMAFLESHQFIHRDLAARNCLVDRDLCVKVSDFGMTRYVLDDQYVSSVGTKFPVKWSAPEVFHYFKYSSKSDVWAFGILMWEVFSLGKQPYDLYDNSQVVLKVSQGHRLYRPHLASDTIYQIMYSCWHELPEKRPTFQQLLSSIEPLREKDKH", "test": "Bmx(h) Eurofins kinase panel", "conditions": "Compound concentration 1.0 uM"}, "[2]": {"biological_target": "Tyrosine-protein kinase Lck (Homo sapiens) (UniProt P06239)", "sequence (P06239 2-509 limits assumed)": "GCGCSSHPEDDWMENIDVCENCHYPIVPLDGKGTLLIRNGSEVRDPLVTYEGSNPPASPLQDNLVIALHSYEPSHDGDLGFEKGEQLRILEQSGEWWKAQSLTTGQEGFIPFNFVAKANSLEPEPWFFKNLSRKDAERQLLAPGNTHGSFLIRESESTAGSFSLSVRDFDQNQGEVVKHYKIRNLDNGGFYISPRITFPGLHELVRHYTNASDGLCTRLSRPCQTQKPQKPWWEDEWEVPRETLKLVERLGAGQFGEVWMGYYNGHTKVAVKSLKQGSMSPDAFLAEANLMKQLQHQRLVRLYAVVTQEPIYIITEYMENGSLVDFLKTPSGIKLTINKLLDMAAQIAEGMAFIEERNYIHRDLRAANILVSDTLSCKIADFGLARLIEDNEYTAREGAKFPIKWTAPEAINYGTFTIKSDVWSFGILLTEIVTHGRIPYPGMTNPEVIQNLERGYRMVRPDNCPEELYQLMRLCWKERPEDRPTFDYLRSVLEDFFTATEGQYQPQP", "test": "Lck(h) Eurofins kinase panel", "conditions": "Compound concentration 1.0 uM"}, "[3]": {"biological_target": "T2, Myosin light chain kinase (Homo sapiens) (UniProt Q32MK0)", "T2 sequence (whole entry)": "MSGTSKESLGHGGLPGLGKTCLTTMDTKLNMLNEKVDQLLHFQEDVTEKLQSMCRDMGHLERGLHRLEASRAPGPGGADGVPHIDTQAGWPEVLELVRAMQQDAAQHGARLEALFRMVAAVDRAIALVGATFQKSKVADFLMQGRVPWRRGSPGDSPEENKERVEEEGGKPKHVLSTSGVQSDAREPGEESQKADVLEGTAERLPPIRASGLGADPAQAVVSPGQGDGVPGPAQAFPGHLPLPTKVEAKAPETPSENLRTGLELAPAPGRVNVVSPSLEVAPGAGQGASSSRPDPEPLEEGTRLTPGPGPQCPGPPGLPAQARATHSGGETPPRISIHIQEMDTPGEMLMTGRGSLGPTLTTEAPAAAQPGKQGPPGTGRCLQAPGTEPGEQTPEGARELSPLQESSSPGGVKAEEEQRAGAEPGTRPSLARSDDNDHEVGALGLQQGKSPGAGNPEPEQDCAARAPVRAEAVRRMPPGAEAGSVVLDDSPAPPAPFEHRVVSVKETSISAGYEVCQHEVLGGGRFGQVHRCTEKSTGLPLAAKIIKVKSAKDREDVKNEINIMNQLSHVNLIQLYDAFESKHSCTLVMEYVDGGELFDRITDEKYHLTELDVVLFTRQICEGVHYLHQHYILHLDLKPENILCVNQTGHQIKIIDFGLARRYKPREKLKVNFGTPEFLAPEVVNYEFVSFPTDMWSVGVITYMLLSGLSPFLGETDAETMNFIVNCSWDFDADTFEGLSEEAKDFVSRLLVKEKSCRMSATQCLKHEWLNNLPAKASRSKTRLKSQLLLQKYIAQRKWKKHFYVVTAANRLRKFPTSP", "test": "MLCK(h) Eurofins kinase panel", "conditions": "Compound concentration 1.0 uM"}, "[4]": {"biological_target": "MAPK/MAK/MRK overlapping kinase (Homo sapiens) (UniProt Q9UQ07)", "sequence (Q9UQ07 whole entry)": "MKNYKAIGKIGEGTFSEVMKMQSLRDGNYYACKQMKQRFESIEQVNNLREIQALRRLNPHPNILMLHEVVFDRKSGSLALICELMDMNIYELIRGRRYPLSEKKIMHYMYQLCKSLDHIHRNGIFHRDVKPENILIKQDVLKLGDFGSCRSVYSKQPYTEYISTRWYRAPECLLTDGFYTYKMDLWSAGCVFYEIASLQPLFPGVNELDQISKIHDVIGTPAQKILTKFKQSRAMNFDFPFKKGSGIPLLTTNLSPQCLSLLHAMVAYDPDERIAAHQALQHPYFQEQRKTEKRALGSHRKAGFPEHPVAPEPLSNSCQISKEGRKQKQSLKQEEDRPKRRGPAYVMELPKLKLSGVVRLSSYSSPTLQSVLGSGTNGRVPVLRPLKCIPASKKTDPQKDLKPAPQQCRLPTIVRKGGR", "test": "MOK(h) Eurofins kinase panel", "conditions": "Compound concentration 1.0 uM"}, "[5]": {"biological_target": "Serine/threonine-protein kinase PAK 6 (Homo sapiens) (UniProt Q9NQU5)", "sequence (Q9NQU5 whole entry, looked up)": "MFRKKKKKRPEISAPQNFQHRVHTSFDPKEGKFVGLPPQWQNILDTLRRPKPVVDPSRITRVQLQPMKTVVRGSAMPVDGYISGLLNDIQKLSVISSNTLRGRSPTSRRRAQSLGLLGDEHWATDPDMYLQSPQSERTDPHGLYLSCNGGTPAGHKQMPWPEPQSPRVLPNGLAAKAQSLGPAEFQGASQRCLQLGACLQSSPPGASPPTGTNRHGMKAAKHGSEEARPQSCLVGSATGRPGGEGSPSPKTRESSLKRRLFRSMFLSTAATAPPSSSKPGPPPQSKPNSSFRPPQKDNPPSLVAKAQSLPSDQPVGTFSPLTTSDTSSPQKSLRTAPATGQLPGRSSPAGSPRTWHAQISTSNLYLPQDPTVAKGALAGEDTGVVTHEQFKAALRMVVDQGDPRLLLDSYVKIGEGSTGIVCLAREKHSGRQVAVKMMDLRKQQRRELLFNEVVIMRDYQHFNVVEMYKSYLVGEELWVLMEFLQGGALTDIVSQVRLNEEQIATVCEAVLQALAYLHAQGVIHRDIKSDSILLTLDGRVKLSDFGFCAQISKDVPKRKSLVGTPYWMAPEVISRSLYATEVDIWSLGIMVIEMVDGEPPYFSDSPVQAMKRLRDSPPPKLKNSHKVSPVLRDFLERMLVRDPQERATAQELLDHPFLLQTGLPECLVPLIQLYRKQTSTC", "test": "PAK6(h) Eurofins kinase panel", "conditions": "Compound concentration 1.0 uM"}, "[6]": {"biological_target": "Platelet-derived growth factor receptor beta (Homo sapiens) (UniProt P09619)", "sequence (P09619 whole entry)": "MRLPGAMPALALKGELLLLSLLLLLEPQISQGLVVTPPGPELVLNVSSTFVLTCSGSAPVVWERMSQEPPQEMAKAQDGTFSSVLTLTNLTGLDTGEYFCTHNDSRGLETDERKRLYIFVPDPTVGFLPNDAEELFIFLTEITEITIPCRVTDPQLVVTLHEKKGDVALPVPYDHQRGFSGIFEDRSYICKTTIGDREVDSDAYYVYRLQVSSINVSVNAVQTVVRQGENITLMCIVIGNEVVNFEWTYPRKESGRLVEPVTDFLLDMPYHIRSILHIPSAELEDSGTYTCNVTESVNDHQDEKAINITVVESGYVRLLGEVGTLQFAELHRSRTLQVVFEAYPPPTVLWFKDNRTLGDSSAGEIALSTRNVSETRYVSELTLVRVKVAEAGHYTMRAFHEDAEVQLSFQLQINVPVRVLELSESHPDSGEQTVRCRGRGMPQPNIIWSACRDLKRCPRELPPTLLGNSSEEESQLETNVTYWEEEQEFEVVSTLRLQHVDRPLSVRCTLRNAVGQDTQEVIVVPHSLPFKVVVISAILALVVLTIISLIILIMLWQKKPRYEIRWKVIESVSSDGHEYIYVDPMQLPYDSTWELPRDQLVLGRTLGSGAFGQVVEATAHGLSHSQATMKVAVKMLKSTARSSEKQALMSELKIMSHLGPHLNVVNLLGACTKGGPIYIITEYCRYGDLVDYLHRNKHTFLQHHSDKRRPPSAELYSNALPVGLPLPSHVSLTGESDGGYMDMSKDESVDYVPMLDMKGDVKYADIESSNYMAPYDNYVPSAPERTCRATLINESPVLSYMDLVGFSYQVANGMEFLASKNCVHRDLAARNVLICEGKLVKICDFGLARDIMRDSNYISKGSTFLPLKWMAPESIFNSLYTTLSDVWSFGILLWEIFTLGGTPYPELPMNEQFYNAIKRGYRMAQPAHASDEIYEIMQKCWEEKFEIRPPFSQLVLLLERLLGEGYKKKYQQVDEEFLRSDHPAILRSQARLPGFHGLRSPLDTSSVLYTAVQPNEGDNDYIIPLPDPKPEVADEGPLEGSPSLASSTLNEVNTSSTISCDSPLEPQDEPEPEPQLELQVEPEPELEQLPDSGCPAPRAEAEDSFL", "test": "PDGFRbeta(h) Eurofins kinase panel", "conditions": "Compound concentration 1.0 uM"}, "[7]": {"biological_target": "[Pyruvate dehydrogenase (acetyl-transferring)] kinase isozyme 4, mitochondrial (Homo sapiens) (UniProt Q16654)", "sequence (Q16654 whole entry, looked up)": "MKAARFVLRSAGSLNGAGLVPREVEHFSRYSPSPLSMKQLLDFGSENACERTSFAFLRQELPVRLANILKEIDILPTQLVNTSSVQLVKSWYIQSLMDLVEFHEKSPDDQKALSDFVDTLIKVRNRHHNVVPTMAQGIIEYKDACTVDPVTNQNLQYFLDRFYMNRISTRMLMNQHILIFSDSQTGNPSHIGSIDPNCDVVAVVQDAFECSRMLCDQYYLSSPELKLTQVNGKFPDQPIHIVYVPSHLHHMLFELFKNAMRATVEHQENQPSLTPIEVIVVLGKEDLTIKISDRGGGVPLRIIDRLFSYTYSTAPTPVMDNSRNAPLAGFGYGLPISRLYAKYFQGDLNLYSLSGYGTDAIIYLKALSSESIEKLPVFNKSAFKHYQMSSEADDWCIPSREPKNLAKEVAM", "test": "PDHK4(h) Eurofins kinase panel", "conditions": "Compound concentration 1.0 uM"}, "[8]": {"biological_target": "T3, TGF-beta receptor type-1 (Homo sapiens) (UniProt P36897)", "T3 sequence (whole entry)": "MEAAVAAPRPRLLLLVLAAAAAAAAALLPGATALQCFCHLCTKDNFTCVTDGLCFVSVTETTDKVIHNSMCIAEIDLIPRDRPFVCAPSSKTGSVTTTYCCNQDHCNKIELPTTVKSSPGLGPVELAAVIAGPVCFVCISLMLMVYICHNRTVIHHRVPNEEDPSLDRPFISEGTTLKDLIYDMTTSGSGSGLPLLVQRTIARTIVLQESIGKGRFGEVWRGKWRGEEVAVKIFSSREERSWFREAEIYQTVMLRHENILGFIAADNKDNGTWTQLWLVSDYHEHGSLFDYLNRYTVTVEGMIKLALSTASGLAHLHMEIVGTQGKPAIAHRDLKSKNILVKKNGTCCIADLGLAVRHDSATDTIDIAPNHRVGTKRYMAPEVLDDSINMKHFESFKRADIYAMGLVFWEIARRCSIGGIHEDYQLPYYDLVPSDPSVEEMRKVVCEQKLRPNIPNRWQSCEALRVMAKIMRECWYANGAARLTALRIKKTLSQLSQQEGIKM", "test": "TGFBR1(h) Eurofins kinase panel", "conditions": "Compound concentration 1.0 uM"}, "[9]": {"system": "A-375", "test": "A375 cell line Proliferation assay", "format": "functional, Homo sapiens", "conditions": "time 3 day"}, "[10]": {"biological_target": "Ribosomal protein S6 kinase alpha-3 (Homo sapiens, UniProt P51812)", "sequence (P51812 whole entry)": "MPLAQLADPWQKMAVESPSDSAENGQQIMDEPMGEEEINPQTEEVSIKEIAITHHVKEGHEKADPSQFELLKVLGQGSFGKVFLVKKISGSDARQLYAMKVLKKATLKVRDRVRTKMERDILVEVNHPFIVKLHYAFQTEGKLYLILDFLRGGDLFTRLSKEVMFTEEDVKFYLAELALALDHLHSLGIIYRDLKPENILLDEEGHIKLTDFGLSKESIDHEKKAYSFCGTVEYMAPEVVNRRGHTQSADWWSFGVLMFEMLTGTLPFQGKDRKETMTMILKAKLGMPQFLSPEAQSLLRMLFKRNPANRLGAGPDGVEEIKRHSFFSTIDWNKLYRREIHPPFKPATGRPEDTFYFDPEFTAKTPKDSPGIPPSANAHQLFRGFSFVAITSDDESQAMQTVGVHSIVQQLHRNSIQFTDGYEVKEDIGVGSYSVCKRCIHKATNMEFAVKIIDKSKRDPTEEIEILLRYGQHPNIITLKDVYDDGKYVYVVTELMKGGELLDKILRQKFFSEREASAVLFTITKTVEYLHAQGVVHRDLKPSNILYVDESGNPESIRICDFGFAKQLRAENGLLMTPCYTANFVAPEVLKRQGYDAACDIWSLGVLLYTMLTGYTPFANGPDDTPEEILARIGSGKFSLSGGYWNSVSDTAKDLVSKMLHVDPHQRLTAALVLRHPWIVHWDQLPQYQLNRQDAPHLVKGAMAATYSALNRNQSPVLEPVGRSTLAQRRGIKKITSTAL"}, "[11]": {"biological_target": "Ribosomal protein S6 kinase alpha-2 (Homo sapiens, UniProt Q15349)", "sequence (Q15349 whole entry)": "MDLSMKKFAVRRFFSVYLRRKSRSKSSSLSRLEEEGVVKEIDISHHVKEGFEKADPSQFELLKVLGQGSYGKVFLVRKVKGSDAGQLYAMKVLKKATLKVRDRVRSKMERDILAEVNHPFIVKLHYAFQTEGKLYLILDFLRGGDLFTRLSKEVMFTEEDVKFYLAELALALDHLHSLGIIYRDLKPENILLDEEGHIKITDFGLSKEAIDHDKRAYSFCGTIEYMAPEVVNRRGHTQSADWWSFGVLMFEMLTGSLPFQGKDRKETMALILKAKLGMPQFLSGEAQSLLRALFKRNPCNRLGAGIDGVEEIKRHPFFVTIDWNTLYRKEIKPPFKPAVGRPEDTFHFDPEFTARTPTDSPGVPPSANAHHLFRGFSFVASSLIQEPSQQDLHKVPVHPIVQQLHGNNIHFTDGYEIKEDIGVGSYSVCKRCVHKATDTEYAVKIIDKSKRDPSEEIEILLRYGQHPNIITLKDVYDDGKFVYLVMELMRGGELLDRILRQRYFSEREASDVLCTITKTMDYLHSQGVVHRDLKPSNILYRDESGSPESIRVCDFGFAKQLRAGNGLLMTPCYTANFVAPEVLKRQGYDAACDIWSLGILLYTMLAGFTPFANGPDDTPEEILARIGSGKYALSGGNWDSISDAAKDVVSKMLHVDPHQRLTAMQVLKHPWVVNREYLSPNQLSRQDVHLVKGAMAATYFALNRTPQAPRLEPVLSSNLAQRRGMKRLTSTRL", "conditions": "Compound concentration 1.0 uM"}}, "data": [{"smiles": "CCc1ccccc1C(=O)Nc1n[nH]c2c(C)c(F)c(C3C(C#N)=C(C)N(C)C(C)=C3C#N)cc12", "note": "[BAY-3827]", "values": [{"measurement": "% residual kinase activity", "setting": "[1]", "result": 113, "unit": "%"}, {"measurement": "% residual kinase activity", "setting": "[2]", "result": 93, "unit": "%"}, {"measurement": "% residual kinase activity", "setting": "[3]", "result": 32, "unit": "%"}, {"measurement": "% residual kinase activity", "setting": "[4]", "result": 115, "unit": "%"}, {"measurement": "% residual kinase activity", "setting": "[5]", "result": 86, "unit": "%"}, {"measurement": "% residual kinase activity", "setting": "[6]", "result": 108, "unit": "%"}, {"measurement": "% residual kinase activity", "setting": "[7]", "result": 101, "unit": "%"}, {"measurement": "% residual kinase activity", "setting": "[8]", "result": 99, "unit": "%"}, {"measurement": "Cell Proliferation IC50", "setting": "[9]", "result": 22800, "unit": "nM"}, {"measurement": "IC50", "setting": "[10]", "result": 52, "unit": "nM"}, {"measurement": "% residual kinase activity", "setting": "[11]", "result": 5, "unit": "%"}]}]}
